Our source for the STRO-1 expression values is US11578110B2, “Compounds for inducing tissue formation and uses thereof” (HISTIDE AG, priority 2015, dated 2023).

The first experiment deals with hMSCs. The experiment in a line: STRO-1 stemness marker expression in hMSCs (immunostaining, ImageJ quantification). It is filed as cell-based, Human. To be noted: SEQ ID NO: 1 to 49 tested in combination with a bioactive carrier (titanium, ceramics, PEEK, hydrogel, etc.). The method, then: The cells were first fixed for 20 min with 4% paraformaldehyde/PBS at 4° C. After fixation, the cells were permeabilized in PBS containing 1% Triton X-100 for 15 min. Runx2, Osterix, Stro-1, Vinculin, Phalloidin, Osteopontin, Sox2, Sox9 antibodies were visualized by treating the cells with 1% (v/v) specific monoclonal antibodies for 1 hour at 37° C. Then the samples were incubated with Alexa fluor® 568 or 647 (F(ab′)2 fragment of IgG(H+L)) during 30 min at room temperature. The cell nuclei were counterstained in 20 ng/mL DAPI for 10 min at room temperature.
For this type of quantification the freeware image analysis ImageJ® software was used. The raw image was first converted to an 8-bit file, and then the unsharp mask feature was used (settings 1:0.2) to remove the image background (rolling ball radius 10). After smoothing, the resulting image, which appears similar to the original photomicrograph but with minimal background, was then converted to a binary image by setting a threshold. Threshold values were determined empirically by selecting a setting, which gave the most accurate binary image for a subset of randomly selected photomicrographs. The cell area was determined by manual delineation on raw fluorescent images. Total contact area and mean contact area per cell were calculated by “analyse particles” in ImageJ®. A minimum of 30 cells per condition were analyzed. Stro-1, CD-34+, and CD-105 expressions were determined using this procedure.
hMSCs were cultured on conventional cell culture plastic plates with or without the presence in the cell culture media of different GFR-binding compounds as defined hereins (SEQ ID NO: 50 to 104) in solution. […] This was probed by Stro-1 immunostaining after cell fixation as described in the Methods section. The quantification of Stro-1 positive contact numbers and areas was performed as described in the Methods section. A minimum of 30 cells per condition were analyzed.
RMSD values are always calculated for a GFR-binding peptide sequence exempt from any bioactive-carrier-affinity-containing group as defined herein (e.g. cysteine, WWFWG, GTPGP, etc. . . . ). When needed i.e. when attachment to a bioactive carrier is contemplated, the bioactive-carrier-affinity-containing group is then present in the GFR-binding compound when it is biologically tested. Using the method detailed in the description, the RMSD of 57 previously reported peptide sequences have been determined (Table 6) and correlated with the expression of STRO-1 after grafted on a PET surface via a procedure as already described above. […] One should note that it is commonly admitted that the expression of STRO-1 in a cell is indicative of a cell that is in a substantially non-differentiated state and the decrease of its expression of at least about 20% is indicative of a cell that has started a processes of differentiation but which may not result in the differentiation of the cell. A decrease of more than 50% would be indicative of the presence of a significant shift towards a differentiated state. A decrease of more than 70% would be indicative of the presence of a very important shift towards a differentiated state. A sustained decrease (e.g. for at least 96 h) of more than 50% or 70% would be indicative of the presence of an even more important shift towards a differentiated state.
Likewise, using the method detailed in the description, the RMSD of 87 GFR-binding peptide sequence representatives of the invention have been determined (Table 7) and correlated with the expression of STRO-1 after grafted on a PET surface via a procedure as already described above. SEQ ID NO: 1 to 49 were tested in combination with a bioactive carrier as defined above in the Examples Section (i.e. titanium, ceramics, PEEK, hydrogel, etc. . . . ), whereas SEQ ID NO: 1143 to 1180 were tested in solution.
With ASASPSSVSQDLSAISMLYL [SEQ ID NO: 15], the STRO-1 expression was 13%. Still for that read-out and setting: the figure for “GTPGPVPTELSPISVLYK (GFR-binding peptide) [SEQ ID NO: 25]” is 17%; for “GTPGPNDEGLESAPTGQNAISVLYF (GTPGPNDEGLEXAPTGQNAISVLYF; GFR-binding peptide; MOD_RES (12)..(12): Xaa is C or S) [SEQ ID NO: 31]” it is 32%.

In the case of HVPKPSSAPTKLSAISMLYL [SEQ ID NO: 12], the STRO-1 expression was 28%.

Turning to NDEGLESAPTEENAISVLYF [SEQ ID NO: 4], the STRO-1 expression amounted to 22%.

As for “GTPGPVPTGQSAISMLYL (GFR-binding peptide) [SEQ ID NO: 27]”, the STRO-1 expression worked out at 24%. Still for that read-out and setting: the value for GSAGPSSVPTKMSPISVLYK [SEQ ID NO: 8] was 31%. For the sequence “GTPGPPSSVPTKLSPISVLYK (GTPGPPXXVPTKLSPISVLYK; GFR-binding peptide; MOD_RES (7)..(8): Xaa is C or S) [SEQ ID NO: 30]”, the STRO-1 expression turned out to be 26%. As for NDEGLESVPTGQNAISVLYF [SEQ ID NO: 17], the STRO-1 expression is 31%.

The experiment is the same for the next values; noted with them: SEQ ID NO: 1 to 49 tested in combination with a bioactive carrier (titanium, ceramics, PEEK, hydrogel, etc.), listed as 45.
For NDEGLESVPAEESPISILYI [SEQ ID NO: 45], the STRO-1 expression worked out at 16%.

Still in this experiment, the particulars now being: SEQ ID NO: 1 to 49 tested in combination with a bioactive carrier (titanium, ceramics, PEEK, hydrogel, etc.), listed as 47.
NDEGLESVPAEESPISILYI [SEQ ID NO: 47]: the STRO-1 expression was determined as 18%.

The experiment is the same for the next values; noted with them: SEQ ID NO: 1143 to 1180 tested in solution.
As to “RVPSTSSTQVDLNAISVLYF (GFR-binding peptide) [SEQ ID NO: 1159]”, the STRO-1 expression is 23%. With “AASKASSVPQEEEPLPMVYY (GFR-binding peptide) [SEQ ID NO: 1149]”, the STRO-1 expression worked out at 23%. Turning to “KIPKASSTQVRLRSVKTAKV (GFR-binding peptide) [SEQ ID NO: 1178]”, the STRO-1 expression is on record as 35%. Turning to “NDEGLESVPEDLSSLSVLFF (GFR-binding peptide) [SEQ ID NO: 1143]”, the STRO-1 expression was determined as 23%. Still for that read-out and setting: the value for “AASKASSSRVKMSPINVLYF (GFR-binding peptide) [SEQ ID NO: 1167]” was 19%; that for “STPPTSSVPTELSPISTLYK (GFR-binding peptide) [SEQ ID NO: 1147]” was 21%; that for “AASKASSSRVELRSVKIAKV (GFR-binding peptide) [SEQ ID NO: 1152]” was 33%. Turning to “KIPKASSVSQKMEPLTMLYY (GFR-binding peptide) [SEQ ID NO: 1150]”, the STRO-1 expression stood at 20%. In the case of “GIPEPSSAPVGQEPLPMVYY (GFR-binding peptide) [SEQ ID NO: 1172]”, the STRO-1 expression stood at 28%.

As to “RVPSTSSVPAEESNITVQIM (GFR-binding peptide) [SEQ ID NO: 1176]”, the STRO-1 expression amounted to 26%. In the case of “KIPKASSVPTKMKPLSVLYV (GFR-binding peptide) [SEQ ID NO: 1168]”, the STRO-1 expression came out at 21%. As to “AASKASSVPEKMRPVQTRKI (GFR-binding peptide) [SEQ ID NO: 1179]”, the STRO-1 expression was determined as 32%. Take “AASKASSTPTDLNAISTLYF (GFR-binding peptide) [SEQ ID NO: 1158]”: the STRO-1 expression is given as 20%.

“GIPEPSSVSQELSATSMLYY (GFR-binding peptide) [SEQ ID NO: 1160]”: the STRO-1 expression is 22%. Same read-out and setting: the figure for “RVPSTSSVPTGQSAISTLYL (GFR-binding peptide) [SEQ ID NO: 1144]” is 19%. For the sequence “AASKASSVPQRLRSVKVAKV (GFR-binding peptide) [SEQ ID NO: 1177]”, the STRO-1 expression was determined as 31%.

The experiment is the same for the next values; noted with them: grafted on a PET surface.
Turning to “SVPAVCSATSATGPYSSVTVTSWPSIVATGGTT (Previously reported sequence) [SEQ ID NO: 1114, reference compound]”, the STRO-1 expression is 92%.

Turning to “VEQLSNMVVK (Previously reported sequence) [SEQ ID NO: 1086, reference compound]”, the STRO-1 expression was 98%. Regarding “CPKPSSAPTELSAISMLL (Previously reported sequence) [SEQ ID NO: 1130, reference compound]”, the STRO-1 expression worked out at 79%. Turning to “CKIPKPSSAPTELSAISMLYL (Previously reported sequence) [SEQ ID NO: 1135, reference compound]”, the STRO-1 expression came to 78%. For the sequence “DPLPIIYYVGRNVRVEQLSNMVVRACKCS (Previously reported sequence) [SEQ ID NO: 1089, reference compound]”, the STRO-1 expression is 97%. Turning to “KPCCAPTELSAISVLYFDDSSNVILKKYRNMVVRACGCR (Previously reported sequence) [SEQ ID NO: 1142, reference compound]”, the STRO-1 expression was found to be 83%.

As for “VPTELSPISLLYLDEFEKVTLKNYQDMVVDG (Previously reported sequence) [SEQ ID NO: 1110, reference compound]”, the STRO-1 expression was 87%.

Turning to “SRVLPIVVQGYVPVQDTKFLGIYYVIGPIIARVILSSSSAISSLNKS (Previously reported sequence) [SEQ ID NO: 1138, reference compound]”, the STRO-1 expression amounted to 84%. Still for that read-out and setting: the value for “LGIAAIIFLQQVPAAFSATSPPG (Previously reported sequence) [SEQ ID NO: 1113, reference compound]” was 97%; that for “MQCRELVTQVTEEPISQTEDGEEQESTTTPRLKGQKKE (Previously reported sequence) [SEQ ID NO: 1104, reference compound]” was 85%. On the same count and under the same terms, the figure for “PIIYYVGRNVRVEQLSNMVVRA (Previously reported sequence) [SEQ ID NO: 1087, reference compound]” is 92%. As to “DKPEESSSTPTHAQCICSSLSEAIVSSVLSTRLVLSQISLTRAKRAFE (Previously reported sequence) [SEQ ID NO: 1121, reference compound]”, the STRO-1 expression is recorded as 87%. As to “ENVNLKKYRNMIVKSCGCH (Previously reported sequence) [SEQ ID NO: 1090, reference compound]”, the STRO-1 expression came to 97%. Same read-out and setting: the figure for “SSVPAVCSATSATGPYSSGSVEVTFDVYATTVY (Previously reported sequence) [SEQ ID NO: 1116, reference compound]” is 92%; for “HIRSTTSSYVSLKSNITNRTIQTPTYSYT (Previously reported sequence) [SEQ ID NO: 1092, reference compound]” it is 98%; for “APTKLNAISVLYFDDSSNVILKKYRNMIVKS (Previously reported sequence) [SEQ ID NO: 1126, reference compound]” it is 84%.

For “TPTYSRPVQKAELTR (Previously reported sequence) [SEQ ID NO: 1091, reference compound]”, the STRO-1 expression is given as 97%.

On to “CVTKPLSSLLFPNWNTTTTPTPP (Previously reported sequence) [SEQ ID NO: 1102, reference compound]”, for which the STRO-1 expression is listed as 92%. Take “FDSRVLKSAISFKENIIF (Previously reported sequence) [SEQ ID NO: 1128, reference compound]”: the STRO-1 expression turned out to be 89%. Consider “VPTKLEPISVLYKDDMGVPTLKYHYEGMAVSECGCR (Previously reported sequence) [SEQ ID NO: 1105, reference compound]”, for which the STRO-1 expression was 81%.

Take “KIPKPSSAPTELSAISMC (Previously reported sequence) [SEQ ID NO: 1129, reference compound]”: the STRO-1 expression was 78%.
